Test results published in patent US12509462B2, “3-(phenylsulfonyl)-[1,2,3]triazolo[1,5A]quinazolin-5(4H)-one derivatives” (BIOVERSYS AG, priority 2018, dated 2025).
Values after ≈ are worked out from the molar mass of the structure shown. Read-outs that look alike come from different tables or passages of the source.

Columns and labels:
HepG2 = settings: 48 h
MRSA = test: MIC by broth microdilution in CA-MHB (CLSI); settings: Staphylococcus aureus, 18 h, read-out: MIC on MRSA
Experimental: Minimal inhibitory concentrations (MIC) were determined by broth microdilution method in cation-adjusted Mueller-Hinton (CA-MHB) broth according to the CLSI guideline. From an overnight culture plate, cells were resuspended in 0.9% (w/v) saline solution and bacterial inoculum was prepared in CA-MHB with 5×10^5 CFU/ml. Compounds were two-fold serially diluted in CA-MHB and 10 μL of this 10× concentrated samples were added into the 96-well plate. 90 μL of bacterial suspension was finally added to the compounds. Plates were covered and incubated without shaking at 35° C. for 18 hours. Every experiment contained an antibiotic as quality control. MIC was determined visually as the lowest concentration of a compound that prevents visible growth of the bacteria and the plates were scanned for documentation.

[1] = tested on: Staphylococcus aureus MRSA strain (USA300 isolate); test: Hemolysis Assay II (exotoxin-mediated lysis of rabbit red blood cells by culture filtrate); format: cell-based; settings: Erythrocyte; for minimal effective concentration / IC95: 18 h; for minimal effective concentration: absorbance <2× the average of the complete inhibition control, read-out: Hemolysis assay II MEC (minimal effective concentration); for IC95: read-out: Hemolysis assay II IC95; for IC50: 18 h culture in CA-MHB, rabbit red blood cells

SMILES: Cc1ccc(S(=O)(=O)c2nnn3c2[nH]c(=O)c2cc(Cl)ccc23)c(C)c1 [Compound 1, 7-chloro-3-(2,4-dimethylphenyl)sulfonyl-4H-triazolo[1,5-a]quinazolin-5-one]
- LD50 HepG2 (HepG2; human): >=100 μM
- MIC (MRSA): ≥ 100 µM
- minimal effective concentration [1]: 4 µg/mL
- IC95 [1]: 2.95 µg/mL (≈ 7.59 µM)
- IC50 [1]: 1.1 µg/mL (≈ 2.83 µM)

SMILES: Cc1ccc(S(=O)(=O)c2nnn3c2[nH]c(=O)c2c(Cl)cccc23)c(C)c1 [Compound 2, 6-chloro-3-(2,4-dimethylphenyl)sulfonyl-4H-triazolo[1,5-a]quinazolin-5-one]
- LD50 HepG2 (HepG2; human): >=100 μM
- MIC (MRSA): ≥ 100 µM
- minimal effective concentration [1]: 2 µg/mL
- IC95 [1]: 2.5 µg/mL (≈ 6.43 µM)
- IC50 [1]: 0.85 µg/mL (≈ 2.19 µM)

SMILES: Cc1ccc(S(=O)(=O)c2nnn3c2[nH]c(=O)c2cccc(Cl)c23)c(C)c1 [Compound 4, 9-chloro-3-(2,4-dimethylphenyl)sulfonyl-4H-triazolo[1,5-a]quinazolin-5-one]
- LD50 HepG2 (HepG2; human): 50 µM
- MIC (MRSA): ≥ 100 µM
- minimal effective concentration [1]: 8 µg/mL
- IC95 [1]: 5.2 µg/mL (≈ 13.4 µM)
- IC50 [1]: 2.3 µg/mL (≈ 5.92 µM)

SMILES: Cc1ccc(S(=O)(=O)c2nnn3c2[nH]c(=O)c2ccc(F)cc23)c(C)c1 [Compound 7, 3-(2,4-dimethylphenyl)sulfonyl-8-fluoro-4H-triazolo[1,5-a]quinazolin-5-one]
- LD50 HepG2 (HepG2; human): >=100 μM
- MIC (MRSA): ≥ 100 µM
- minimal effective concentration [1]: 4 µg/mL
- IC95 [1]: 4.8 µg/mL (≈ 12.9 µM)
- IC50 [1]: 1.7 µg/mL (≈ 4.57 µM)

SMILES: CC(C)c1ccc(S(=O)(=O)c2nnn3c2[nH]c(=O)c2c(Cl)cccc23)cc1 [Compound 8, 6-chloro-3-(4-isopropylphenyl)sulfonyl-4H-triazolo[1,5-a]quinazolin-5-one]
- LD50 HepG2 (HepG2; human): >=100 μM
- MIC (MRSA): ≥ 100 µM
- minimal effective concentration [1]: 4 µg/mL
- IC95 [1]: 3.8 µg/mL (≈ 9.43 µM)
- IC50 [1]: 2.2 µg/mL (≈ 5.46 µM)

SMILES: COc1ccc2c(=O)[nH]c3c(S(=O)(=O)c4ccc(C5CC5)cc4)nnn3c2c1 [Compound 21, 3-(4-cyclopropylphenyl)sulfonyl-8-methoxy-4H-triazolo[1,5-a]quinazolin-5-one]
- LD50 HepG2 (HepG2; human): >=100 μM
- MIC (MRSA): ≥ 100 µM
- minimal effective concentration [1]: 4 µg/mL
- IC95 [1]: 3.4 µg/mL (≈ 8.58 µM)
- IC50 [1]: 1.5 µg/mL (≈ 3.78 µM)

SMILES: COc1ccc2c(=O)[nH]c3c(S(=O)(=O)c4ccc(C(F)(F)F)cc4)nnn3c2c1 [Compound 25, 8-methoxy-3-[4-(trifluoromethyl)phenyl]sulfonyl-4H-triazolo[1,5-a]quinazolin-5-one]
- LD50 HepG2 (HepG2; human): >=100 μM
- MIC (MRSA): ≥ 100 µM

SMILES: COc1ccc2c(=O)[nH]c3c(S(=O)(=O)c4ccc(C5CC5)cc4C)nnn3c2c1 [Compound 27, 3-(4-cyclopropyl-2-methyl-phenyl)sulfonyl-8-methoxy-4H-triazolo[1,5-a]quinazolin-5-one]
- LD50 HepG2 (HepG2; human): >=100 μM
- MIC (MRSA): ≥ 100 µM
- minimal effective concentration [1]: 2 µg/mL
- IC95 [1]: 1.9 µg/mL (≈ 4.63 µM)
- IC50 [1]: 0.15 µg/mL (≈ 0.365 µM)

SMILES: CCc1ccc(S(=O)(=O)c2nnn3c2[nH]c(=O)c2ccc(OC)cc23)c(C)c1 [Compound 28, 3-(4-ethyl-2-methyl-phenyl)sulfonyl-8-methoxy-4H-triazolo[1,5-a]quinazolin-5-one]
- LD50 HepG2 (HepG2; human): >=100 μM
- MIC (MRSA): ≥ 100 µM
- minimal effective concentration [1]: 8 µg/mL
- IC95 [1]: 4.5 µg/mL (≈ 11.3 µM)
- IC50 [1]: 2 µg/mL (≈ 5.02 µM)

SMILES: COc1ccc2c(=O)[nH]c3c(S(=O)(=O)c4ccc(C#N)cc4)nnn3c2c1 [Compound 29, 4-[(8-methoxy-5-oxo-4H-triazolo[1,5-a]quinazolin-3-yl)sulfonyl]benzonitrile]
- LD50 HepG2 (HepG2; human): >=100 μM
- MIC (MRSA): ≥ 100 µM

SMILES: COc1ccc2c(c1)c(=O)[nH]c1c(S(=O)(=O)c3ccc(C)cc3C)nnn12 [Compound 30, 3-(2,4-dimethylphenyl)sulfonyl-7-methoxy-4H-triazolo[1,5-a]quinazolin-5-one]
- LD50 HepG2 (HepG2; human): >=100 μM
- MIC (MRSA): ≥ 100 µM

SMILES: COc1ccc2c(=O)[nH]c3c(S(=O)(=O)c4ccc(-c5nn[nH]n5)cc4C)nnn3c2c1 [Compound 31, 8-methoxy-3-[2-methyl-4-(2H-tetrazol-5-yl)phenyl]sulfonyl-4H-triazolo[1,5-a]quinazolin-5-one]
- LD50 HepG2 (HepG2; human): >=100 μM
- MIC (MRSA): ≥ 100 µM

SMILES: COc1ccc2c(=O)[nH]c3c(S(=O)(=O)c4ccc(C(N)=O)cc4C)nnn3c2c1 [Compound 32, 4-[(8-methoxy-5-oxo-4H-triazolo[1,5-a]quinazolin-3-yl)sulfonyl]-3-methyl-benzamide]
- LD50 HepG2 (HepG2; human): >=100 μM
- MIC (MRSA): ≥ 100 µM

SMILES: COc1ccc2c(=O)[nH]c3c(S(=O)(=O)c4ccc(-c5nnc(C)[nH]5)cc4C)nnn3c2c1 [Compound 33, 8-methoxy-3-[2-methyl-4-(5-methyl-4H-1,2,4-triazol-3-yl)phenyl]sulfonyl-4H-triazolo[1,5-a]quinazolin-5-one]
- LD50 HepG2 (HepG2; human): >=100 μM
- MIC (MRSA): ≥ 100 µM

SMILES: Cc1ccc(S(=O)(=O)c2nnn3c2[nH]c(=O)c2ccc(Br)cc23)c(C)c1 [Compound 38, 8-bromo-3-(2,4-dimethylphenyl)sulfonyl-4H-triazolo[1,5-a]quinazolin-5-one]
- LD50 HepG2 (HepG2; human): >=100 μM
- MIC (MRSA): 50 µM (≈ 21.7 µg/mL)
- minimal effective concentration [1]: 4 µg/mL
- IC95 [1]: 4.6 µg/mL (≈ 10.6 µM)
- IC50 [1]: 1.4 µg/mL (≈ 3.23 µM)

SMILES: COCCCOc1ccc2c(=O)[nH]c3c(S(=O)(=O)c4ccc(C)cc4C)nnn3c2c1 [Compound 40, 3-(2,4-dimethylphenyl)sulfonyl-8-(3-methoxypropoxy)-4H-triazolo[1,5-a]quinazolin-5-one]
- LD50 HepG2 (HepG2; human): >=100 μM
- MIC (MRSA): ≥ 100 µM
- minimal effective concentration [1]: 3 µg/mL
- IC95 [1]: 4.4 µg/mL (≈ 9.94 µM)
- IC50 [1]: 1.05 µg/mL (≈ 2.37 µM)

SMILES: Cc1ccc(S(=O)(=O)c2nnn3c2[nH]c(=O)c2ccc(OCCCC#N)cc23)c(C)c1 [Compound 41, 4-[[3-(2,4-dimethylphenyl)sulfonyl-5-oxo-4H-triazolo[1,5-a]quinazolin-8-yl]oxy]butanenitrile]
- LD50 HepG2 (HepG2; human): >=100 μM
- MIC (MRSA): ≥ 100 µM
- minimal effective concentration [1]: 2 µg/mL
- IC95 [1]: 2.5 µg/mL (≈ 5.71 µM)
- IC50 [1]: 0.65 µg/mL (≈ 1.49 µM)

SMILES: Cc1ccc(S(=O)(=O)c2nnn3c2[nH]c(=O)c2ccc(I)cc23)c(C)c1 [Compound 42, 3-(2,4-dimethylphenyl)sulfonyl-8-iodo-4H-triazolo[1,5-a]quinazolin-5-one]
- LD50 HepG2 (HepG2; human): >=100 μM
- MIC (MRSA): ≥ 100 µM
- minimal effective concentration [1]: 6 µg/mL
- IC95 [1]: 10.1 µg/mL (≈ 20.9 µM)
- IC50 [1]: 2.05 µg/mL (≈ 4.27 µM)

SMILES: COCCOc1ccc2c(=O)[nH]c3c(S(=O)(=O)c4ccc(C)cc4C)nnn3c2c1 [Compound 43, 3-(2,4-dimethylphenyl)sulfonyl-8-(2-methoxyethoxy)-4H-triazolo[1,5-a]quinazolin-5-one]
- LD50 HepG2 (HepG2; human): >=100 μM
- MIC (MRSA): ≥ 100 µM
- minimal effective concentration [1]: 2 µg/mL
- IC95 [1]: 3.5 µg/mL (≈ 8.17 µM)
- IC50 [1]: 0.8 µg/mL (≈ 1.87 µM)

SMILES: Cc1cc(Br)c(S(=O)(=O)c2nnn3c2[nH]c(=O)c2ccccc23)cc1C [Compound 44, 3-(2-bromo-4,5-dimethyl-phenyl)sulfonyl-4H-triazolo[1,5-a]quinazolin-5-one]
- LD50 HepG2 (HepG2; human): >=100 μM
- MIC (MRSA): ≥ 100 µM
- minimal effective concentration [1]: 6 µg/mL
- IC95 [1]: 7.2 µg/mL (≈ 16.6 µM)
- IC50 [1]: 1.85 µg/mL (≈ 4.27 µM)

SMILES: Cc1ccc(S(=O)(=O)c2nnn3c2[nH]c(=O)c2ccc(N4CCC4)cc23)c(C)c1 [Compound 45, 8-(azetidin-1-yl)-3-(2,4-dimethylphenyl)sulfonyl-4H-triazolo[1,5-a]quinazolin-5-one]
- LD50 HepG2 (HepG2; compounds 0.8-100 μM, SEAP readout): >=100 μM
- MIC (MRSA): ≥ 100 µM
- minimal effective concentration [1]: 6 µg/mL
- IC95 [1]: 8.85 µg/mL (≈ 21.6 µM)
- IC50 [1]: 1.7 µg/mL (≈ 4.15 µM)

SMILES: Cc1ccc(S(=O)(=O)c2nnn3c2[nH]c(=O)c2cc(O)ccc23)c(C)c1 [Compound 46, 3-(2,4-dimethylphenyl)sulfonyl-7-hydroxy-4H-triazolo[1,5-a]quinazolin-5-one]
- LD50 HepG2 (HepG2; human): >=100 μM
- MIC (MRSA): ≥ 100 µM
- minimal effective concentration [1]: 1 µg/mL
- IC95 [1]: 1.4 µg/mL (≈ 3.78 µM)
- IC50 [1]: 0.4 µg/mL (≈ 1.08 µM)

SMILES: COc1cccc2c(=O)[nH]c3c(S(=O)(=O)c4ccc(C)cc4C)nnn3c12 [Compound 47, 3-(2,4-dimethylphenyl)sulfonyl-9-methoxy-4H-triazolo[1,5-a]quinazolin-5-one]
- LD50 HepG2 (HepG2; human): >=100 μM
- MIC (MRSA): ≥ 100 µM
- minimal effective concentration [1]: 2 µg/mL
- IC95 [1]: 1.95 µg/mL (≈ 5.07 µM)
- IC50 [1]: 0.5 µg/mL (≈ 1.3 µM)

SMILES: Cc1ccc(S(=O)(=O)c2nnn3c2[nH]c(=O)c2ccc(NCCN4CCOCC4)cc23)c(C)c1 [Compound 48, 3-(2,4-dimethylphenyl)sulfonyl-8-(2-morpholinoethylamino)-4H-triazolo[1,5-a]quinazolin-5-one]
- LD50 HepG2 (HepG2; human): 50 µM
- MIC (MRSA): 50 µM (≈ 24.1 µg/mL)
- minimal effective concentration [1]: 8 µg/mL
- IC95 [1]: 7 µg/mL (≈ 14.5 µM)
- IC50 [1]: 1.6 µg/mL (≈ 3.32 µM)

SMILES: Cc1ccc(S(=O)(=O)c2nnn3c2[nH]c(=O)c2ccc(OCC#N)cc23)c(C)c1 [Compound 54, 2-[[3-(2,4-dimethylphenyl)sulfonyl-5-oxo-4H-triazolo[1,5-a]quinazolin-8-yl]oxy]acetonitrile]
- LD50 HepG2 (HepG2; human): >=100 μM
- MIC (MRSA): ≥ 100 µM

SMILES: Cc1ccc(S(=O)(=O)c2nnn3c2[nH]c(=O)c2ccc(OCCCC(N)=O)cc23)c(C)c1 [Compound 56, 4-[[3-(2,4-dimethylphenyl)sulfonyl-5-oxo-4H-triazolo[1,5-a]quinazolin-8-yl]oxy]butanamide]
- LD50 HepG2 (HepG2; human): >=100 μM
- MIC (MRSA): ≥ 100 µM

SMILES: COc1cc2c(=O)[nH]c3c(S(=O)(=O)c4ccc(C)cc4C)nnn3c2cc1O [Compound 57, 3-(2,4-dimethylphenyl)sulfonyl-8-hydroxy-7-methoxy-4H-triazolo[1,5-a]quinazolin-5-one]
- LD50 HepG2 (HepG2; human): >=100 μM
- MIC (MRSA): ≥ 100 µM

SMILES: Cc1ccc(S(=O)(=O)c2nnn3c2[nH]c(=O)c2cc(O)c(OCCO)cc23)c(C)c1 [Compound 61, 3-(2,4-dimethylphenyl)sulfonyl-7-hydroxy-8-(2-hydroxyethoxy)-4H-triazolo[1,5-a]quinazolin-5-one]
- LD50 HepG2 (HepG2; human): >=100 μM
- MIC (MRSA): ≥ 100 µM
